Measured values from patent publication US20220323406A1, “METHODS AND COMPOSITIONS FOR DIFFERENTIATING STEM CELLS” (Massachusetts Institute of Technology, priority 2019, published 2022).

What was measured:
[1] = tested on: ENR+CD organoids (ISC to Paneth cell differentiation); assay: Primary screen: CCh-stimulated lysozyme secretion LYZ.S, 2.5-D 384-well ENR+CD organoid differentiation; format: cell-based, mouse; settings: primary screen
Text: (§1) High-throughput screening.

[2] = mouse, in vivo, po
[3] = tested on: 3D-cultured intestinal organoids (ENR or ENR+CD); assay: Lysozyme secretion assay (3D culture), normalized to ATP; format: cell-based, mouse
Protocol: Lysozyme assay (3D culture). ISC-enriched organoids cultured in 3D Matrigel with ENRCV media were passaged to 48-well plate in 3D Matrigel with ENRCV. At day zero, media were replaced to ENR or ENRCD with or without indicated compounds, and media were replaced every other day. At day six, cells were washed twice with basal media and treated with carbamylcholine chloride (Sigma, C4382) for 3 hours. Media were collected and lysozyme activity was measured by EnzChek Lysozyme Assay Kit (ThermoFisher, E22013).
Lysozyme secretion assay. ISC-enriched organoids in 3D Matrigel culture were passaged to a 48- or 96-well plate and cultured with ENR or ENR+CD media containing DMSO or each drug for 6 days. DMSO- or drug-containing media were changed every other day. On day 6, cells were washed with basal media twice and treated with basal media with or without 10 μM carbamoylcholine chloride for 3 h in a CO2 incubator at 37° C. A part of the conditioned media was collected and used for lysozyme assay (Thermo, E-22013) following the manufacturer's instruction. The fluorescence was measured using excitation/emission of 485/530 nm. CellTiter-Glo 3D Reagent (Promega, G9681) was added afterward, and the cell culture plate was incubated on an orbital shaker at RT for 30 min to induce cell lysis and to stabilize the luminescent signal. The solution was replaced to a 96-well white microplate, and luminescent signals were measured by a microplate reader (infinite M200, Tecan). The standard curve was prepared by diluting recombinant ATP (Promega, P1132). For both assays, a polynomial cubic curve was fitted to a set of standard data, and each sample value was calculated on the Microsoft Excel.

[4] = tested on: Paneth, goblet and cycling cells of small intestine; assay: KPT-330 treatment in vivo (Example 1), histology of proximal and distal small intestine; parameters: cycling cell number, distal small intestine: dose or concentration left out as unconfirmed
[5] = tested on: ENR+CD organoids (ISC to Paneth cell differentiation); assay: Secondary (validation) screen: LYZ.NS basal lysozyme secretion, 2.5-D 384-well ENR+CD organoids; format: cell-based, mouse; settings: for Dose.FC.LYZ.NS: 6-day ENR+CD, vs ENR+CD+DMSO
ENR+CD organoids [6] = assay: Primary screen: ATP (CellTiter-Glo 3D, CTG) cell number/viability, 2.5-D 384-well ENR+CD organoids; settings: for Dose.FC.CTG (log2 fold change): primary screen;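 as to all read-outs here: compounds given at plating and again on day 3 over a 6-day differentiation from ENR+CV stem-cell-enriched precursors, ATP measured on day 6, plate median as control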
[7] = tested on: ENR+CD organoids (ISC to Paneth cell differentiation); assay: Primary screen: basal (non-stimulated) lysozyme secretion LYZ.NS, 2.5-D 384-well ENR+CD organoid differentiation; format: cell-based, mouse; settings: for Dose.FC.LYZ.NS (log2 fold change) / Z.LYZ.NS (standard z score): primary screen
Text: as §1

ENR+CD organoids [8] = assay: Secondary (validation) screen: ATP (CTG) assay, 2.5-D 384-well ENR+CD organoids; format: cell-based, mouse; settings: 6-day ENR+CD, vs ENR+CD+DMSO

Compound: O=C(/C=C\n1cnc(-c2cc(C(F)(F)F)cc(C(F)(F)F)c2)n1)NNc1cnccn1 [KPT-330]
- Dose.FC.LYZ.S (log2 fold change) ([1]; dose 0.08 uM): 0.259
- Dose.FC.LYZ.S (log2 fold change) ([1]; dose 0.40 uM): −0.282
- Dose.FC.LYZ.S (log2 fold change) ([1]; dose 2.00 uM): −0.390
- Dose.FC.LYZ.S (log2 fold change) ([1]; dose 10.00 uM): −0.423
- toxicity to mice (body weight) [2]: toxic to mice
- enrichment, treatment day 4-6 (by LYZ secretion assay) ([3]; 2-day treatment within 6-day ENR+CD differentiation, read at day 6): minorly enriched
- most effective dose among tested concentrations (LYZ secretion) ([3]; 6 days ENR+CD, basal and Cch-stimulated): 160 nM
- Paneth cell-specific activity (lysozyme assay) in conventional ENR culture ([3]; ENR media, 3-D, 6 days): enhancing Paneth cell-specific activity
- Paneth cell activity (LYZ secretion, basal and Cch-stimulated), dose dependence ([3]; up to 160 nM, 6 days ENR+CD): enhanced Paneth cell activity in a dose-dependent manner
- Paneth cell number, distal small intestine ([4]; high dose): decreased Paneth cells
- cycling cell number, distal small intestine ([4]; low dose): significant increase in cycling cell number
- Paneth cell number, proximal small intestine ([4]; oral gavage, 1 week): no significant shift in Paneth cell number
- effect by histology ([4]; oral gavage, 1 week): pro-differentiation effect
- goblet cell numbers, proximal/distal small intestine ([4]; oral gavage, 1 week): no significant shift in goblet cell numbers
- Dose.FC.LYZ.NS ([5]; 0.02 uM): −0.005 log2 fold change
- Dose.FC.LYZ.NS ([5]; 0.04 uM): −0.040 log2 fold change
- Dose.FC.LYZ.NS ([5]; 0.08 uM): 0.142 log2 fold change
- validated doses in secondary screen (SSMD above cutoff in both LYZ assays) ([5]; LYZ.NS and LYZ.S): multiple validated doses
- Dose.FC.LYZ.NS ([5]; […]): 0.244 log2 fold change
- increase in basal LYZ secretion (LYZ.NS) relative to ENR+CD control ([5]; validated dose-treatments, mean fold change vs ENR+CD+DMSO): 50-75%
- toxicity in primary screening (ENR+CD organoids [6]; concentrations higher than 160 nM, 6 days): toxic
- Dose.FC.CTG (log2 fold change) (ENR+CD organoids [6]; dose 0.08 uM): 0.210
- Dose.FC.CTG (log2 fold change) (ENR+CD organoids [6]; dose 0.40 uM): −0.657
- Dose.FC.CTG (log2 fold change) (ENR+CD organoids [6]; dose 2.00 uM): −0.894
- Dose.FC.CTG (log2 fold change) (ENR+CD organoids [6]; dose 10.00 uM): −1.876
- primary screen hit call (SSMD and z-scored FC cutoffs in both LYZ assays) ([7]; LYZ.NS and LYZ.S, 0.08-10 uM, 6 days ENR+CD): sole hit in their respective pathway
- Dose.FC.LYZ.NS (log2 fold change) ([7]; dose 0.08 uM): 0.200
- Z.LYZ.NS (standard z score) ([7]; dose 0.08 uM): 1.745
- Dose.FC.LYZ.NS (log2 fold change) ([7]; dose 0.40 uM): −0.266
- Z.LYZ.NS (standard z score) ([7]; dose 0.40 uM): −2.317
- Dose.FC.LYZ.NS (log2 fold change) ([7]; dose 2.00 uM): −0.280
- Z.LYZ.NS (standard z score) ([7]; dose 2.00 uM): −2.439
- Dose.FC.LYZ.NS (log2 fold change) ([7]; dose 10.00 uM): −0.284
- Z.LYZ.NS (standard z score) ([7]; dose 10.00 uM): −2.470
- Dose.FC.CTG (ENR+CD organoids [8]; 0.02 uM): 0.126 log2 fold change
- Dose.FC.CTG (ENR+CD organoids [8]; 0.04 uM): 0.029 log2 fold change
- Dose.FC.CTG (ENR+CD organoids [8]; 0.08 uM): 0.141 log2 fold change
- Dose.FC.CTG (ENR+CD organoids [8]; […]): 0.120 log2 fold change
